# Assay results as given in article PMC6138237, “Machine intelligence decrypts β-lapachone as an allosteric 5-lipoxygenase inhibitor” (Chemical Science, 2018).
# pIC50: −log10 of the molar value. Like-named read-outs stand apart in the source and are kept apart here.
# Columns and labels:
# GSK3β = GSK3β (Homo sapiens, UniProt P49841); assay: ExpresS Diversity Kinase Profile, Cerep (LANCE): GSK3β; format: biochemical
# CaMK2α = CaMK2α (Homo sapiens, UniProt Q9UQM7); assay: ExpresS Diversity Kinase Profile, Cerep (LANCE): CaMK2α; format: biochemical
# MNK2 = MNK2 (Homo sapiens, UniProt Q9HBH9); assay: ExpresS Diversity Kinase Profile, Cerep (LANCE): MNK2; format: biochemical
# EP1 = molecular target: T1, EP1 (Homo sapiens, UniProt P34995); assay: EP1 functional antagonist assay, Cerep (PGE2 3 nM, intracellular Ca2+)
# T1 sequence (P34995 1-402): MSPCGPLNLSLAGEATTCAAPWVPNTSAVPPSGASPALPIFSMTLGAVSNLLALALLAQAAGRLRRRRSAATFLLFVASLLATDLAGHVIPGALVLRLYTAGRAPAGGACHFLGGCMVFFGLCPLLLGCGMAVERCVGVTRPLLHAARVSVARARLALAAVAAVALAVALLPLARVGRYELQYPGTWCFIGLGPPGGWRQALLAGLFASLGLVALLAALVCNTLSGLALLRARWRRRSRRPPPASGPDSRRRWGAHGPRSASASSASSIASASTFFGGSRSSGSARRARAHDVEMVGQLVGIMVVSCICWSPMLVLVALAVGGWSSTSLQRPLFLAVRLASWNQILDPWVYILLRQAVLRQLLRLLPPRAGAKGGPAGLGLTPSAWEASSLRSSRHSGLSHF
# EP3 = molecular target: T2, EP3 (Homo sapiens, UniProt P43115); assay: EP3 functional antagonist assay, Cerep (sulprostone 0.1 nM, impedance)
# T2 sequence (P43115 1-390): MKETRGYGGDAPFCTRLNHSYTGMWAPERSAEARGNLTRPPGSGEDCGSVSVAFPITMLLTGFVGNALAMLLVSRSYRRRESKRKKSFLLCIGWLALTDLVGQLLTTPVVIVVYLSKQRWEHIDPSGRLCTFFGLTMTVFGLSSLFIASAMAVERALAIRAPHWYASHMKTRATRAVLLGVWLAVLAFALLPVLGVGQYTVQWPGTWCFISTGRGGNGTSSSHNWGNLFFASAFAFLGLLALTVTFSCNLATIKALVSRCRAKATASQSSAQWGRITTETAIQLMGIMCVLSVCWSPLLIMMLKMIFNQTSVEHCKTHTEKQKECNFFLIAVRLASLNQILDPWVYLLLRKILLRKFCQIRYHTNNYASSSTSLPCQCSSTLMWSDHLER
# 5-LO = molecular target: T3, 5-LO (Homo sapiens, UniProt P09917); assay: 5-LO product formation in intact human neutrophils stimulated with A23187 plus arachidonic acid
# T3 sequence (P09917 1-674): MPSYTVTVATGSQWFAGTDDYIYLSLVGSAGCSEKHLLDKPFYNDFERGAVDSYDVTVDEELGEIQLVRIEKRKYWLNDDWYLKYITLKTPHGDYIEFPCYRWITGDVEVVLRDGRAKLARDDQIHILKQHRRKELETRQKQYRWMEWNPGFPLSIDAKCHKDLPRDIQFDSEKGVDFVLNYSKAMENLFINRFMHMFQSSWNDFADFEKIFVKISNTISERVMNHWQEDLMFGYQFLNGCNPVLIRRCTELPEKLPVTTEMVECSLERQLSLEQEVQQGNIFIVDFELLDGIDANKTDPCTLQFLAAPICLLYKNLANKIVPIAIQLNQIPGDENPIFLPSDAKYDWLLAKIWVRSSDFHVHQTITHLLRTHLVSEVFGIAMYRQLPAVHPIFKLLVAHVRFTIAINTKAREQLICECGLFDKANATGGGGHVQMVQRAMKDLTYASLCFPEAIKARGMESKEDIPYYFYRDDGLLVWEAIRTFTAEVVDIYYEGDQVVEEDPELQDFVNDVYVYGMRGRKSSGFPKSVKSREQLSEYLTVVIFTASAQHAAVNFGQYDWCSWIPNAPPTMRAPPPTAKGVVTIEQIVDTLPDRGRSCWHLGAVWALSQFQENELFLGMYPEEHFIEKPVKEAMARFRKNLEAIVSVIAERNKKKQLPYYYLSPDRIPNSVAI
# [1] = n = 2, read-out: % Inhibition of control values, Mean
# [2] = read-out: % Inhibition of control values, 1st measurement
# [3] = read-out: % Inhibition of control values, 2nd measurement
# Chain of CaMK2α (Q9UQM7 whole entry): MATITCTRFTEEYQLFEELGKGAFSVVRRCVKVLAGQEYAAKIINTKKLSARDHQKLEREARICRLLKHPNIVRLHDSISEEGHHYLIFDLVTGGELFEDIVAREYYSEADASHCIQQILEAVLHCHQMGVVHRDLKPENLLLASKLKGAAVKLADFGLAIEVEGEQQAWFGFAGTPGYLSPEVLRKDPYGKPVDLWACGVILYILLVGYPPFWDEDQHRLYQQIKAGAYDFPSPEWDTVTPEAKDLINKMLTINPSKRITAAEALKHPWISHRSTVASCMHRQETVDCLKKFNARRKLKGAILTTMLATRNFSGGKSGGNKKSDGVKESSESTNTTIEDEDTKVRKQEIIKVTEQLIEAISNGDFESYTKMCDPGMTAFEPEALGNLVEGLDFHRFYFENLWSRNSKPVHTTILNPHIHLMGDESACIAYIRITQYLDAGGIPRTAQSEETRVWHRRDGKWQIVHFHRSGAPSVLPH
# Chain of MNK2 (Q9HBH9 whole entry): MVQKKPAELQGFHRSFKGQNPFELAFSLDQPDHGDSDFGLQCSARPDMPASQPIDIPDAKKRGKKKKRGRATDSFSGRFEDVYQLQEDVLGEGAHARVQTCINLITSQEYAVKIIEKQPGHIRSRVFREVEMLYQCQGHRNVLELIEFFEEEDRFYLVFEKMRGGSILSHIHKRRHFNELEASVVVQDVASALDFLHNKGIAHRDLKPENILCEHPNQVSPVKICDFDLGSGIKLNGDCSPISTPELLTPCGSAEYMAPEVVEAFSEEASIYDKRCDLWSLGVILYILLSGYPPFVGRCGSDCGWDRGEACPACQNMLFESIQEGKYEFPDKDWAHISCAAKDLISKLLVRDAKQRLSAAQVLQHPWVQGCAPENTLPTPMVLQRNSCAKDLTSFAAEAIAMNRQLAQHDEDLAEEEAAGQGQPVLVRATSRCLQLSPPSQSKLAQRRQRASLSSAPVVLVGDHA
# Chain of GSK3β (P49841 whole entry): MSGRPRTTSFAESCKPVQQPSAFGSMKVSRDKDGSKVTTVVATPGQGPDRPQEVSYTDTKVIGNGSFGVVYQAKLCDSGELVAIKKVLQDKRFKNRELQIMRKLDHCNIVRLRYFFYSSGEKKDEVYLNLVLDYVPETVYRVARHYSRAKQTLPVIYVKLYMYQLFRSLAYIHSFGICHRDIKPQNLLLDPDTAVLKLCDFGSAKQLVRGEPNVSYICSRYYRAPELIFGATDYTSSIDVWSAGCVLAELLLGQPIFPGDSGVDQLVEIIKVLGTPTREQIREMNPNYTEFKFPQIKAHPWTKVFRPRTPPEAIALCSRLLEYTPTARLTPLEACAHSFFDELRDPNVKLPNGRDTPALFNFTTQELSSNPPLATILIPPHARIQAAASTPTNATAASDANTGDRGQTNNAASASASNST
compound,measurement,setting,value
CC1(C)CCC2=C(O1)c1ccccc1C(=O)C2=O [β-Lapachone],inhibition at 150 µM,GSK3β; [1],94.2%
same,inhibition at 150 µM,GSK3β; [2],95%
same,inhibition at 150 µM,GSK3β; [3],93.4%
same,inhibition at 150 µM,CaMK2α; [1],54.8%
same,inhibition at 150 µM,CaMK2α; [2],61.5%
same,inhibition at 150 µM,CaMK2α; [3],48%
same,inhibition at 150 µM,MNK2; [1],80.1%
same,inhibition at 150 µM,MNK2; [2],78.1%
same,inhibition at 150 µM,MNK2; [3],82.1%
same,pIC50,EP1,< 4.00
same,Kb,EP3,22 µM
same,ligand efficiency (LE),EP3; EP3,0.36
same,pIC50,"EP3; Experimental –log(IC50 or KD), EP3",4.70
same,pIC50,"EP3; IC50, EP3 concentration–inhibition curve, n = 2",4.20
same,pIC50,"5-LO; IC50 (5-LO), intact human neutrophils, without DTT, n = 3",5.07
same,pIC50,"5-LO; IC50, intact human neutrophils supplemented with 1 mM DTT, n = 4",6.38
